In US20260325487A1 (BS BIOTECHNA SPOLKA AKCYJNA, priority 2023, published 2026):
Read-outs that look alike come from different tables or passages of the source.

How the values were obtained:
Assay type in all cases: cell-based
SK-MEL3 = test: SRB anti-proliferative assay, SK-MEL3, with CalcuSyn combination index (Example 1); details: Homo sapiens, SK-MEL3, 72 h, read-out: Zah. (inhibition of proliferation)
Experimental: (§1) Cells were thawed from ampoules stored in liquid nitrogen and cultured in petri dishes in appropriate culture medium according to Table 2, in a humidified 5% CO2 atmosphere at 37° C. Cells were passaged twice weekly using EDTA-Trypsin solution, pH 8. Counted cells with a viability of at least 90% as assessed with Trypan-Blue solution were used for anti-proliferative assays.
(§2) Twenty-four hours before the addition of the test compounds/combinations, cells were seeded into 384-well plates at 50 μL/well and a density of 10^3 cells/well, in the appropriate culture medium.
(§3) Solutions of the compounds were diluted in the test medium-RPMI-1640 and Opti-MEM in a 1:1 ratio, and the medium was supplemented with 2 mM glutamine and 5% fetal bovine serum FBS. After 72 h, colourimetric assessment of cell growth was performed by SRB. […] Unbound dye was removed by washing the plates (4×) in 1% (v/v) acetic acid, and protein-bound dye was extracted with 10 mM unbuffered Tris base and the optical density (A=540 nm) was determined in a BioTek Synergy H4 Hybrid computer microplate reader (BioTek Instruments USA). The entire washing/staining procedure was performed using a BioTek EL406 washing station (BioTek Instruments USA). The raw absorbance results were analysed in Microsoft Excel software using the formula:
(§4) [formula] • Where: • % Zahlnh-inhibition of proliferation • Am—absorbance of wells without cells (medium) • Ak—absorbance of control wells (cells treated with pure culture medium) • Ap—absorbance of wells treated with compounds
(§5) Each compound at the indicated concentrations was tested in triplicate in one experiment. Each experiment was repeated three times. Data analysis was supplemented with synergy assessment using CalcuSyn software. […] A CI value below 0.8 indicates synergism, 0.8-1.2 an additive effect, above 1.2 an antagonism.

SW1990 = test: SRB anti-proliferative assay, SW1990, with CalcuSyn combination index (Example 1); details: Homo sapiens, SW1990, 72 h, read-out: Zah. (inhibition of proliferation)
Experimental: as §1, §2, §3, §4, §5

A375 = test: SRB anti-proliferative assay, A375, with CalcuSyn combination index (Example 1); details: Homo sapiens, A-375, 72 h, read-out: Zah. (inhibition of proliferation)
Experimental: as §1, §2, §3, §4, §5

NCI-H1975 = test: SRB anti-proliferative assay, NCI-H1975, with CalcuSyn combination index (Example 1); details: Homo sapiens, NCI-H1975, 72 h, read-out: Zah. (inhibition of proliferation)
Experimental: as §1, §2, §3, §4, §5

A172 = test: SRB anti-proliferative assay, A172, molecular combination and nanoparticles, with combination index (Example III); details: Homo sapiens, A 172, 72 h, read-out: Zah. (inhibition of proliferation)
Experimental: (§6) Cells were thawed from ampoules stored in liquid nitrogen and cultured in petri dishes in the appropriate culture medium according to Table 16, in a humidified 5% CO2 atmosphere at 37° C. Cells were passaged twice weekly using EDTA-Trypsin solution, pH 8, as a separating agent. Counted cells with a viability of at least 90% as assessed with Trypan-Blue solution were used for anti-proliferation assays.
(§7) Twenty-four hours before the addition of the test compounds/combinations, cells were seeded into 384-well plates at 50 μL/well and a density of 10^3 cells/well, in the appropriate culture medium. […] Solutions of the compounds were diluted in the test medium—RPMI-1640 and Opti-MEM in a 1:1 ratio, and the medium was supplemented with 2 mM glutamine and 5% fetal bovine serum FBS.
(§8) After 72 h, colourimetric assessment of cell growth was performed by SRB. […] Unbound dye was removed by washing the plates (4×) in 1% (v/v) acetic acid, and protein-bound dye was extracted with 10 mM unbuffered Tris base and the optical density (A=540 nm) was determined in a BioTek Synergy H4 Hybrid computer microplate reader (BioTek Instruments USA). The entire washing/staining procedure was performed using a BioTek EL406 washing station (BioTek Instruments USA). The raw absorbance results were analysed in Microsoft Excel software using the formula:
as §4, §5

Hs683 = test: SRB anti-proliferative assay, Hs683, molecular combination and nanoparticles, with combination index (Example III); details: Homo sapiens, Hs 683, 72 h, read-out: Zah. (inhibition of proliferation)
Experimental: as §6, §7, §8, §4, §5

LN229 = test: SRB anti-proliferative assay, LN229, molecular combination and nanoparticles, with combination index (Example III); details: Homo sapiens
Experimental: as §6, §7, §8, §4, §5

LUDLU-1 = test: SRB anti-proliferative assay, LUDLU-1, molecular combination and nanoparticles, with combination index (Example III); details: Homo sapiens, LUDLU-1, read-out: Zah. (inhibition of cell proliferation)
Experimental: as §6, §7, §8, §4, §5

[1] = LN-229, 72 h, read-out: Zah. (inhibition of proliferation)
[2] = LN-229, read-out: Zah. (inhibition of cell proliferation)

**Q.** For `C=CCNC1=C2C[C@@H](C)C[C@H](OC)[C@H](O)[C@@H](C)/C=C(\C)[C@H](OC(N)=O)[C@@H](OC)/C=C\C=C(/C)C(=O)NC(=CC1=O)C2=O` [17AAG, 17-AAG (tanespimycin)], which inhibition at 0.0031 µM (SK-MEL3) is on record?
**A.** 1.1%

**Q.** And the inhibition at 0.01 µM (SK-MEL3)?
**A.** 14%

**Q.** What about the inhibition at 0.0314 µM (SK-MEL3) of the same compound?
**A.** 40.3%

**Q.** What about the inhibition at 0.1 µM (SK-MEL3) of the same compound?
**A.** 48.5%

**Q.** And the inhibition at 0.3155 µM (SK-MEL3)?
**A.** 58.1%

**Q.** And the inhibition at 1 µM (SK-MEL3)?
**A.** 58.5%

**Q.** What about the inhibition at 3.1546 µM (SK-MEL3) of the same compound?
**A.** 60.7%

**Q.** And the inhibition at 10 µM (SK-MEL3)?
**A.** 76.6%

**Q.** And the inhibition at 0.0031 µM (SW1990)?
**A.** -0.2%

**Q.** What about the inhibition at 0.01 µM (SW1990) of the same compound?
**A.** 5.7%

**Q.** What about the inhibition at 0.0314 µM (SW1990) of the same compound?
**A.** 40.7%

**Q.** And the inhibition at 0.1 µM (SW1990)?
**A.** 81.7%

**Q.** What about the inhibition at 0.3155 µM (SW1990) of the same compound?
**A.** 90.6%

**Q.** And the inhibition at 1 µM (SW1990)?
**A.** 92.9%

**Q.** And the inhibition at 3.1546 µM (SW1990)?
**A.** 93.5%

**Q.** And the inhibition at 10 µM (SW1990)?
**A.** 92.6%

**Q.** And the inhibition at 0.0031 µM (A375)?
**A.** 24.1%

**Q.** What about the inhibition at 0.01 µM (A375) of the same compound?
**A.** 53.3%

**Q.** And the inhibition at 0.0314 µM (A375)?
**A.** 83.2%

**Q.** What about the inhibition at 0.1 µM (A375) of the same compound?
**A.** 89.2%

**Q.** And the inhibition at 0.3155 µM (A375)?
**A.** 91.6%

**Q.** And the inhibition at 1 µM (A375)?
**A.** 96.3%

**Q.** What about the inhibition at 3.1546 µM (A375) of the same compound?
**A.** 97.1%

**Q.** What about the inhibition at 10 µM (A375) of the same compound?
**A.** 97%

**Q.** What about the inhibition at 0.0031 µM (NCI-H1975) of the same compound?
**A.** 10%

**Q.** What about the inhibition at 0.01 µM (NCI-H1975) of the same compound?
**A.** 25.2%

**Q.** What about the inhibition at 0.0314 µM (NCI-H1975) of the same compound?
**A.** 66.7%

**Q.** What about the inhibition at 0.1 µM (NCI-H1975) of the same compound?
**A.** 84.1%

**Q.** And the inhibition at 0.3155 µM (NCI-H1975)?
**A.** 87.6%

**Q.** What about the inhibition at 1 µM (NCI-H1975) of the same compound?
**A.** 88.5%

**Q.** What about the inhibition at 3.1546 µM (NCI-H1975) of the same compound?
**A.** 88.4%

**Q.** And the inhibition at 10 µM (NCI-H1975)?
**A.** 86.6%

**Q.** What about the inhibition at 0.0003163 µM (A172) of the same compound?
**A.** 6%

**Q.** What about the inhibition at 0.001 µM (A172) of the same compound?
**A.** 15.7%

**Q.** What about the inhibition at 0.0032 µM (A172) of the same compound?
**A.** 4.7%

**Q.** What about the inhibition at 0.01 µM (A172) of the same compound?
**A.** 7.8%

**Q.** What about the inhibition at 0.0316 µM (A172) of the same compound?
**A.** 20.1%

**Q.** And the inhibition at 0.1 µM (A172)?
**A.** 37.4%

**Q.** What about the inhibition at 0.3163 µM (A172) of the same compound?
**A.** 64.6%

**Q.** What about the inhibition at 1 µM (A172) of the same compound?
**A.** 81.1%

**Q.** What about the inhibition at 0.0003163 µM (Hs683) of the same compound?
**A.** 8.3%

**Q.** And the inhibition at 0.001 µM (Hs683)?
**A.** 50.3%

**Q.** What about the inhibition at 0.0032 µM (Hs683) of the same compound?
**A.** 63%

**Q.** What about the inhibition at 0.01 µM (Hs683) of the same compound?
**A.** 93.9%

**Q.** What about the inhibition at 0.0316 µM (Hs683) of the same compound?
**A.** 79.2%

**Q.** And the inhibition at 0.1 µM (Hs683)?
**A.** 82%

**Q.** And the inhibition at 0.3163 µM (Hs683)?
**A.** 91%

**Q.** What about the inhibition at 1 µM (Hs683) of the same compound?
**A.** 94.3%

**Q.** What about the inhibition at 0.0032 µM (LN229; [1]) of the same compound?
**A.** 3.3%

**Q.** What about the inhibition at 0.01 µM (LN229; [1]) of the same compound?
**A.** 3.1%

**Q.** And the inhibition at 0.0316 µM (LN229; [1])?
**A.** 18.4%

**Q.** And the inhibition at 0.1 µM (LN229; [1])?
**A.** 28.9%

**Q.** What about the inhibition at 0.3163 µM (LN229; [1]) of the same compound?
**A.** 38.7%

**Q.** What about the inhibition at 1 µM (LN229; [1]) of the same compound?
**A.** 62.9%

**Q.** And the inhibition at 3.1625 µM (LN229; [1])?
**A.** 71.6%

**Q.** What about the inhibition at 10.0005 µM (LN229; [1]) of the same compound?
**A.** 81.5%

**Q.** What about the inhibition at 0.0032 µM (LN229; [2]) of the same compound?
**A.** 3.3%

**Q.** What about the inhibition at 0.01 µM (LN229; [2]) of the same compound?
**A.** 3.1%

**Q.** What about the inhibition at 0.0316 µM (LN229; [2]) of the same compound?
**A.** 18.4%

**Q.** What about the inhibition at 0.1 µM (LN229; [2]) of the same compound?
**A.** 28.9%

**Q.** And the inhibition at 0.3163 µM (LN229; [2])?
**A.** 38.7%

**Q.** What about the inhibition at 1 µM (LN229; [2]) of the same compound?
**A.** 62.9%

**Q.** And the inhibition at 3.1625 µM (LN229; [2])?
**A.** 71.6%

**Q.** And the inhibition at 10.0005 µM (LN229; [2])?
**A.** 81.5%

**Q.** What about the inhibition at 0.0003163 µM (LUDLU-1) of the same compound?
**A.** 3.9%

**Q.** What about the inhibition at 0.001 µM (LUDLU-1) of the same compound?
**A.** 29.3%

**Q.** What about the inhibition at 0.0032 µM (LUDLU-1) of the same compound?
**A.** 61.9%

**Q.** And the inhibition at 0.01 µM (LUDLU-1)?
**A.** 75.1%

**Q.** And the inhibition at 0.0316 µM (LUDLU-1)?
**A.** 60.2%

**Q.** What about the inhibition at 0.1 µM (LUDLU-1) of the same compound?
**A.** 65.7%

**Q.** And the inhibition at 0.3163 µM (LUDLU-1)?
**A.** 76.9%

**Q.** What about the inhibition at 1 µM (LUDLU-1) of the same compound?
**A.** 80.2%
